In assay [1] the test system is human α-adrenergic 2 A receptors. The following applies: CHO-K1 cells expressing human α-adrenergic 2 A receptors (Gαi coupled), 0.15 to 333 nM, xCELLigence; ref not given ("Recent studies"); cited from earlier work. An excerpt:
Recent studies used the xCELLigence system to monitor activation of endogenous GPCRs. […] Here, we also ...

Another assay deals with APJ homodimer. Nature of the assay: MALDI-TOF MS of immunoprecipitated APJ complex after treatment with HIV TAT-TMD interference peptides. Conditions: peptide 4 μM, 60 min, 37 °C. The assay is classed as binding, human. The source says: TMDs are important for the formation of head-to-head interfaces in class A GPCR dimers. To identify dimerization interfaces in the seven TMDs of APJ, the effects of cell-penetrating interference peptides (containing the sequence of the hydrophobic transmembrane helices) on APJ homodimerization were examined by MS.
Figure 5 The effects of interference peptides on apelin receptor (APJ) homodimerization as measured by matrix assisted laser desorption […] time-of-flight (MALDI-TOF) mass spectrometry.
The identity of the TMD peptide sequences was analyzed with liquid chromatography (LC)-MS.
MS was performed to identity APJ dimer interfaces in samples treated with TMD peptides. Cells were transfected with APJ and, 48 h later, treated with or without the indicated HIV TAT-TMD fused peptides (4 μM) for 60 min at 37 °C. Extracted proteins were immunoprecipitated using an anti-APJ antibody. Protein A/G PLUS-agarose beads were incubated with proteins for 2 h and washed four times with lysis buffer. The APJ complex was eluted from beads as described previously. Then, the endogenous APJ complex was analyzed with an AXIMA matrix-assisted laser desorption/ionization time-of-flight (MALDI-TOF) system (Shimazdu) in linear positive mode. The mass range was 4–10 kDa and the matrix was Sinapic Acid (SA), 10 mg/ml (50% acetonitrile (ACN), 50% H2O, 0.1% […] (TFA)). The results were calibrated with a Shimadzu MALDI calibration kit (Laser BioLabs).

The subject of assay [2] is APJ dimer (APJ-Rluc / APJ-EGFP). Nature of the assay: BRET, effect of interference peptides on APJ homodimers. The assay is classed as cell-based, human. The source says:
Figure 7 The effect of interference peptides on apelin receptor (APJ) dimers. […] BRET[1] was detected as described above.
For orientation: BRET reads energy transfer from a luciferase to a nearby fluorophore.

Assay [3] deals with human umbilical vein endothelial cells (HUVECs). Nature of the assay: xCELLigence RTCA, apelin-13-induced cellular response (cell index) with or without interference peptide. The assay is classed as cell-based. Conditions: TMD1 4 μM with apelin-13 10 μM, 0.1 μM or 1 nM; average of quadruplicates. On the procedure: All curves were plotted as the average of quadruplicate treatments, with error bars shown as SEM.
A background step (step 1) was performed before other experimental steps. The background step was performed with each well of the E-Plate 16 containing only culture media (100 μl/well) for 30 min at 37 °C, prior to the addition of 10000 HUVECs per well (100 μl/well). […] The schedule settings were as follows (RTCA Software 2.0): […]

Assay [4] relates to angiotensin-converting enzyme 2 (ACE2). Conditions: cited from earlier work. The source says:
The apelin receptor (APJ) is a member of the family A of G-protein-coupled receptors (GPCRs) and is involved in range of physiological and pathological functions including fluid homeostasis, anxiety, and depression, as well as cardiovascular and metabolic disorders. APJ was first identified as an orphan GPCR with closest identity to the angiotensin II (Ang II) receptor. In 1998, the peptide apelin was isolated from bovine stomach extracts as the endogenous ligand of APJ.

Assay [5] has as its system APJ homodimers (APJ-Rluc / APJ-EGFP). Nature of the assay: BRET, effect of agonist/antagonist treatment on APJ homodimerization. The assay is classed as cell-based, human. The following applies: CHO cells co-expressing APJ-Rluc and APJ-EGFP (1:1); concentration not given; four independent experiments in triplicate. On the procedure: We further assessed APJ interactions by co-immunoprecipitation (Co-IP), BRET[1], and Förster resonance energy transfer (FRET). […] BRET studies were performed to confirm APJ homodimerization.
Figure 2 Assessment of apelin receptor (APJ) dimerization using co-immunoprecipitation (Co-IP) and bioluminescence resonance energy transfer (BRET) assays. (A) Assessment of APJ homodimerization with Co-IP. Chinese hamster ovary (CHO) cells were either not transfected (mock) or transfected with HA-APJ, Myc-APJ, or both (co-transfection). HA-APJ and Myc-APJ were also mixed (mix). Immunoprecipitated samples were resolved by SDS-PAGE and immunoblotted with an anti-Myc antibody (upper panel). […] (B) Assessment of APJ homodimerization with BRET[1]. (C) BRET saturation curves. (D) Assessment of effects of agonist-treatment on dimerization by BRET[1]. For BRET, four independent experiments were performed with triplicate samples and the results were expressed as the mean ± SEM of four experiments ([…] versus control group; NS, not significant versus unstimulated cells).
To monitor constitutive APJ interactions, CHO cells were transfected with APJ-Rluc and APJ-EGFP plasmids at a ratio of 1:1, 1:2, 1:3, 1:4, 1:5, and 1:6 to express a constant amount of donor-labeled protein with increasing amounts of acceptor-labeled protein. At 24 h post-transfection, cells were trypsinized and plated on a 96 well microplate for 24 h in HEPES-buffered phenol red-free medium (Invitrogen, Life Technologies). Coelenterazine h (5 μM; Promega) was added for BRET measurements using a Tristar LB941 plate reader (Berthold) with an Rluc filter (400–475 nm) and a EGFP filter (500–550 nm). To monitor the induced interactions of APJ, BRET signals were measured as described above, with slight modifications. […] To measure the effects of interference peptides on APJ dimers, CHO cells were co-transfected with APJ-Rluc and APJ-EGFP (1:3) and incubated with interference peptides corresponding to TMD1, TMD2, TMD3, TMD4, TMD5, TMD6, and TMD7 at 37 °C (4 μM), and BRET[1] detected as described above.

Assay [6] relates to APJ oligomers (APJ-Rluc, APJ-VN173, APJ-VC155). Description: BiFC-BRET, effect of agonist/antagonist treatment on APJ oligomerization. The assay is classed as cell-based, human. The following applies: CHO cells co-expressing APJ-Rluc, concentration not given, four independent experiments in triplicate. On the procedure:
Additionally, BiFC-BRET assays were performed to detect APJ oligomerization in living cells. Two non-fluorescent fragments (pCE-BiFC-VN173 and pCE-BiFC-VC155) of Venus fluorescent protein were separately fused to APJ (APJ-VN173 and APJ-VC155) (Fig. 4A). CHO cells were then co-transfected with APJ-Rluc, APJ-VN173, and APJ-VC155 and observed with TIRFM.
Figure 4 Assessment of apelin receptor (APJ) oligomerization with bioluminescence resonance energy transfer - bimolecular fluorescence complementation (BiFC-BRET). (A) Principle of BiFC-BRET. The assay examines the formation of functional Venus by the complementation of protein fragments fused to APJ. Association of APJ enables formation of a bimolecular fluorescent complex. If all three tagged APJ proteins interact, BRET can occur. (B) TIRFM detection of APJ dimers (yellow particles) after BiFC. (C) Assessment of APJ oligomerization with BiFC-BRET. (D) Assessment of agonist-induced oligomerization.

The next assay deals with CHO-K1 cells. Set-up: method as in not given ("Recent studies"). The following applies: serum-deprived CHO-K1 cells, 5 pM to 5 μM, xCELLigence; ref not given ("Recent studies"); cited from earlier work.

“Also recorded” adds a separate entry of the source. No end group written: not given here.

These results are taken from paper PMC5238433 (Scientific Reports, 2017).

Take `Brc1c(NC2=NCCN2)ccc2nccnc12` [UK14,304]: the cell index response result in assay [1] is given as “induces a dose-dependent increase in CI”.
Take “PAIYMLVFLLGTTGNGLVLWTVFYGRKKRRQRRR [TMD1, HIV TAT-fused interference peptide derived from human APJ transmembrane domain 1]”: the “species detected by MALDI-TOF MS / effect of peptide on APJ homodimerization” value with APJ homodimer (cells transfected with APJ, anti-APJ immunoprecipitation, MALDI-TOF linear positive mode, mass range 4–10 kDa, sinapic acid) is “TMD1 dimers, TMD1 tetramers, APJ, [APJ + TMD1], APJ dimers, and [APJ + TMD1] dimers were detected”. Besides, in the assay with APJ homodimer (MALDI-TOF), the “binding to APJ (peptides encoding TMDs, MS)” value is “can bind to APJ”. In assay [2] (CHO cells, APJ-Rluc:APJ-EGFP 1:3, peptide 4 μM, 37 °C, four independent experiments in triplicate), the “effect on APJ dimer BRET signals” value is reported as “significantly reduced APJ dimer BRET signals”. Moreover, the “reduction of APJ dimer BRET signals” value in assay [2] (CHO cells, APJ-Rluc:APJ-EGFP 1:3, peptide 4 μM, 37 °C, four independent experiments in triplicate, P < 0.01, one range for TMD1, 2, 3 and 4) is listed as 55–75%. In assay [2] (interference peptides 4 μM, in vitro, by BRET and MS), the “disruption of APJ (homo)dimerization (statement in words)” value is listed as “disrupted APJ dimerization; also recorded: can effectively disrupt the formation of APJ homodimers; also recorded: disrupted APJ homodimerization in vitro”. In addition, the “HUVEC cell index (CI), interference peptide with apelin-13” value in assay [3] is “led to a decreasing trend in the CI compared to that before treatment”.
Turning to apelin, in assay [4], the “hydrolysis by ACE2” value is on record as “high catalytic efficiency”.
Consider apelin-17, for which, in assay [5], the “BRET signal versus unstimulated cells (APJ homodimer formation)” value was “not significantly different to those of unstimulated cells”. The “BRET ratio versus unstimulated cells (APJ oligomerization, BiFC-BRET)” value in assay [6] is on record as “the same as that of unstimulated cells”.
Take “apelin-36: APJ agonist purchased from Phoenix Pharmaceuticals (LVQPRGSRNGPGPWQGGRRKFRRQRPRLSHKGPMPF; Apelin-36; UniProt Q9ULZ1 42-77, looked up)”: the “BRET signal versus unstimulated cells (APJ homodimer formation)” value in assay [5] is given as “not significantly different to those of unstimulated cells”. For the same molecule, the “BRET ratio versus unstimulated cells (APJ oligomerization, BiFC-BRET)” value in assay [6] is on record as “the same as that of unstimulated cells”.
Consider “calcitonin: stimulating serum-deprived CHO-K1 cells with calcitonin (CGNLSTCMLGTYTQDFNKFHTFPQTAIGVGAP; ends and bridges not checked; cysteine pairing not given here; UniProt P01258 85-116, looked up)”, for which, in the assay on CHO-K1 cells, the cell index response result is reported as “a transient agonist-induced increase in CI lasting up to a few hours”.
